Source: article PMC12137140, “The fast-evolving FIKK kinase family of Plasmodium falciparum can be inhibited by a single compound” (Nature Microbiology, 2025)

target: T1, FIKK8 (Plasmodium falciparum, UniProt C0H4R8); test: biochemical; set-up: ADP-Glo luminescence kinase assay, recombinant FIKK8 kinase domain, Po peptide substrate plus ATP, four-parameter IC50 fit
T1 construct: gene PF3D7_0805700; recombinant FIKK8 kinase domain
Experimental: Columns 6 and 18 of the microplates served as controls. Column 6 was a positive control (recombinant FIKK8 kinase domain + Po peptide ([…])[22] + ATP without compounds). Column 18 was a negative control (recombinant FIKK8 kinase domain + Po peptide − ATP). First, 3 µl kinase at 40 nM in kinase reaction buffer (20 mM MOPS, 10 mM magnesium chloride and 10 mM manganese chloride, pH 7.4 (Alfa Aesar)) was dispensed in each well using a Multidrop Combi Reagent dispenser (Thermo Fisher Scientific). Recombinant FIKK8 kinase domain was left to incubate in the presence of compounds for 15 min at room temperature. Then, 3 µl Po peptide + ATP at 20 µM each, diluted in kinase reaction buffer, was dispensed in each well except in column 18 in which 3 µl of peptide without ATP was dispensed. The kinase reaction was left to occur for 1 h and was stopped with 6 µl ADP-Glo reagent. Kinase activity was assessed after addition of 12 µl kinase detection reagent by measuring luminescence on a multimode microplate reader FLUOstar Omega (BMG Labtech).

T1 sequence (C0H4R8 entry or part of it): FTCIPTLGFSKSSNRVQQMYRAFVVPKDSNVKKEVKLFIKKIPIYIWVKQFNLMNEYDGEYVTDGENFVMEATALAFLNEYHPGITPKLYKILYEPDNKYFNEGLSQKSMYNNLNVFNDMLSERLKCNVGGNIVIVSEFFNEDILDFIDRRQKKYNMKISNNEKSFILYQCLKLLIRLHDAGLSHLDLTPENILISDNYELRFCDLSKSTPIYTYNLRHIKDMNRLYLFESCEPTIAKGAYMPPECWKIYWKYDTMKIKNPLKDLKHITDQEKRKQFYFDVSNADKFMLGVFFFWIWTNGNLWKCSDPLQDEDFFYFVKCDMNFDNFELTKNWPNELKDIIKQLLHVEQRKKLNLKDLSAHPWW

| SMILES | IC50 [nM] |
| --- | --- |
| COc1ccc(Nc2ncc(C#N)c(Nc3ccccc3C(N)=O)n2)cc1N1CCN(C)CC1 [GSK1558669A] | 89 ± 37 |
| O=c1[nH]ccc2nc(N[C@@H]3CCCNC3)nc(Nc3ccc(S(=O)(=O)N4CCOCC4)cc3)c12 [GSK2177277A] | 48 ± 4.4 |
| O=c1[nH]ccc2nc(N[C@@H]3CCNC3)nc(Nc3ccc4c(c3)S(=O)(=O)CC4)c12 [GSK2181306A] | 31 ± 1.6 |
| O=c1[nH]ccc2nc(N[C@@H]3CCNC3)nc(Nc3cc(Cl)cc(Cl)c3)c12 [GSK2188764A] | 60 ± 9.8 |
| Cc1cccc(Nc2nc(N[C@H]3CCNC3)ncc2C(N)=O)c1 [GSK2197149A] | 315 ± 52 |
| CCN(CC)Cc1ccc(Nc2nccc(-c3cnn4ncccc34)n2)cc1 [GW780056X] | 332 ± 88 |
| CCNc1nccc(-c2c(-c3ccc(F)cc3)ncn2C2CCN(C)CC2)n1 [SB-226605] | 98 ± 6.6 |
| CN1CCC(n2cnc(-c3ccc(F)cc3)c2-c2ccnc(NCCO)n2)CC1 [SB-226879] | 176 ± 20 |
| CN1CCC(n2cnc(-c3ccc(F)cc3)c2-c2ccnc(NC3CCNCC3)n2)CC1 [SB-229482] | 24 ± 1.7 |
| O=C(Nc1n[nH]c2nnc(-c3cccnc3)cc12)C1CC1 [SB-675259-M] | 168 ± 21 |
| CCN1CCC(CC(=O)Nc2n[nH]c3nc(-c4cccs4)c(Br)cc23)CC1 [SB-739245-AC] | 238 ± 28 |

target: T2, FIKK1 (Plasmodium falciparum, UniProt B9ZSH8); test: ADP-Glo kinase assay, % inhibition heat map (n = […]); assay type: biochemical
T2 construct: gene PF3D7_0102600; recombinant kinase domain
T2 sequence (B9ZSH8 entry or part of it): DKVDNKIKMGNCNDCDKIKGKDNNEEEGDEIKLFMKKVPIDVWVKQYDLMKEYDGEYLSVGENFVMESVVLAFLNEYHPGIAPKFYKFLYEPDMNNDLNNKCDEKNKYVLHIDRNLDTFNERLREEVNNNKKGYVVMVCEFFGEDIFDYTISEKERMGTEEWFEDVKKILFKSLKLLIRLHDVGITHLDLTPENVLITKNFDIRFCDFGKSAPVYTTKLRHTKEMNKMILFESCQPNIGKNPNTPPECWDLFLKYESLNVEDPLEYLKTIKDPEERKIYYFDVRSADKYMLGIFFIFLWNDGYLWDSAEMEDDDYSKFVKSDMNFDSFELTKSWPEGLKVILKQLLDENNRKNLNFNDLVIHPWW

| SMILES | ADP-Glo kinase assay, % inhibition heat map (n = 3) |
| --- | --- |
| Cc1cc(O)c2c(c1)C(=O)c1cc(O)cc(O)c1C2=O [Emodin] | showed potency against all PfFIKKs (Fig. 6d) |

target: T3, FIKK13 (Plasmodium falciparum, UniProt A0A143ZWL4); test: as above; assay type: biochemical
T3 construct: gene PF3D7_1371700; recombinant kinase domain
T3 sequence (A0A143ZWL4 entry or part of it): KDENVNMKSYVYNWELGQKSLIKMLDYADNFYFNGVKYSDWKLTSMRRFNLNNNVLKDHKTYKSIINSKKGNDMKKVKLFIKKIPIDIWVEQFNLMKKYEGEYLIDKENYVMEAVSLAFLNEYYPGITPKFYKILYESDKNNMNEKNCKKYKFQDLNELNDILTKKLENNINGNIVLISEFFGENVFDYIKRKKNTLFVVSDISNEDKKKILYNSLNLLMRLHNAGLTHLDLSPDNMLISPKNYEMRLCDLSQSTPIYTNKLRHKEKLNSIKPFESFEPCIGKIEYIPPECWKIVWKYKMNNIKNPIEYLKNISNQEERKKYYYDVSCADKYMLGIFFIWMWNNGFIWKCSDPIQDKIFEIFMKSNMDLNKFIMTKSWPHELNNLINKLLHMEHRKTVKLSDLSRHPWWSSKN

| SMILES | ADP-Glo kinase assay, % inhibition heat map (n = 3) |
| --- | --- |
| Cc1cc(O)c2c(c1)C(=O)c1cc(O)cc(O)c1C2=O [Emodin] | showed potency against all PfFIKKs (Fig. 6d) |
